ChEMBL document CHEMBL3885881, “DrugMatrix”

Species: Rattus norvegicus
Assay: DrugMatrix - Regimen: Daily Repeat
Assay type: toxicity, organism-based, Sprague-Dawley
Parameters: regimen Daily Repeat, gender Male, age 6-8 weeks
Conditions: in vivo, po, route oral GAVAGE, […]; for ABSOLUTE BASOPHIL / ABSOLUTE EOSINOPHIL / ABSOLUTE LYMPHOCYTE / ABSOLUTE MONOCYTE / ABSOLUTE SEGMENTED NEUTROPHIL / BASOPHIL / EOSINOPHIL / ERYTHROCYTE COUNT / HEMATOCRIT / HEMOGLOBIN / LEUKOCYTE COUNT / LYMPHOCYTE / MEAN CORPUSCULAR HEMOGLOBIN / MEAN CORPUSCULAR HEMOGLOBIN CONCENTRATION / MEAN CORPUSCULAR VOLUME / MONOCYTE / NEUTROPHIL / NUCLEATED RED BLOOD CELLS / PLATELET COUNT: tissue Blood; for ALANINE AMINOTRANSFERASE / ALBUMIN / ALKALINE PHOSPHATASE / ASPARTATE AMINOTRANSFERASE / BLOOD UREA NITROGEN / CARBON DIOXIDE / CHLORIDE / CHOLESTEROL / CREATINE PHOSPHOKINASE / CREATININE / GLUCOSE / LACTATE DEHYDROGENASE / LIPASE / PHOSPHORUS / POTASSIUM / SODIUM / TOTAL BILIRUBIN / TOTAL PROTEIN / URIC ACID: tissue Plasma
[1] = 0 mg/kg, 72 h, dose level Control, time 3 day
[2] = 0 mg/kg, 120 h, dose level Control, time 5 day
[3] = 1 mg/kg, 72 h, dose level Low, time 3 day

O=C(O)COC(=O)Cc1ccccc1Nc1c(Cl)cccc1Cl [ACECLOFENAC]
ABSOLUTE BASOPHIL [1]: 0 CELLS/uL | ABSOLUTE EOSINOPHIL [1]: 0 CELLS/uL | ABSOLUTE LYMPHOCYTE [1]: 9244.83 CELLS/uL | ABSOLUTE MONOCYTE [1]: 102 CELLS/uL | ABSOLUTE SEGMENTED NEUTROPHIL [1]: 869.83 CELLS/uL | BASOPHIL [1]: 0% | EOSINOPHIL [1]: 0% | ERYTHROCYTE COUNT [1]: 5.43 x10E6/uL | HEMATOCRIT [1]: 34.03% | HEMOGLOBIN [1]: 13.27 G/DL | LEUKOCYTE COUNT [1]: 10.22 x10E3/uL | LYMPHOCYTE [1]: 90.33% | MEAN CORPUSCULAR HEMOGLOBIN [1]: 24.48 pg | MEAN CORPUSCULAR HEMOGLOBIN CONCENTRATION [1]: 39.03 G/DL | MEAN CORPUSCULAR VOLUME [1]: 62.75 fL | MONOCYTE [1]: 1% | NEUTROPHIL [1]: 8.67% | NUCLEATED RED BLOOD CELLS [1]: 0.17 /100WBC | PLATELET COUNT [1]: 989 x10E3/uL | ALANINE AMINOTRANSFERASE [1]: 77 u/L | ALBUMIN [1]: 3.97 G/DL | ALKALINE PHOSPHATASE [1]: 464.83 u/L | ASPARTATE AMINOTRANSFERASE [1]: 89.83 u/L | BLOOD UREA NITROGEN [1]: 12.17 mg/dL | CARBON DIOXIDE [1]: 34.17 mmol/L | CHLORIDE [1]: 98.33 MEQ/L | CHOLESTEROL [1]: 75.17 mg/dL | CREATINE PHOSPHOKINASE [1]: 367.67 u/L | CREATININE [1]: 0.16 mg/dL | GLUCOSE [1]: 142.67 mg/dL | LACTATE DEHYDROGENASE [1]: 139.33 u/L | LIPASE [1]: 9.5 u/L | PHOSPHORUS [1]: 10.85 mg/dL | POTASSIUM [1]: 6.38 MEQ/L | SODIUM [1]: 143.2 MEQ/L | TOTAL BILIRUBIN [1]: 0.2 mg/dL | TOTAL PROTEIN [1]: 5.77 G/DL | URIC ACID [1]: 0.7 mg/dL | ABSOLUTE BASOPHIL [2]: 0 CELLS/uL | ABSOLUTE EOSINOPHIL [2]: 0 CELLS/uL | ABSOLUTE LYMPHOCYTE [2]: 8295.33 CELLS/uL | ABSOLUTE MONOCYTE [2]: 84.67 CELLS/uL | ABSOLUTE SEGMENTED NEUTROPHIL [2]: 970 CELLS/uL | BASOPHIL [2]: 0% | EOSINOPHIL [2]: 0% | ERYTHROCYTE COUNT [2]: 5.74 x10E6/uL | HEMATOCRIT [2]: 36.22% | HEMOGLOBIN [2]: 13.85 G/DL | LEUKOCYTE COUNT [2]: 9.35 x10E3/uL | LYMPHOCYTE [2]: 88.67% | MEAN CORPUSCULAR HEMOGLOBIN [2]: 24.13 pg | MEAN CORPUSCULAR HEMOGLOBIN CONCENTRATION [2]: 38.25 G/DL | MEAN CORPUSCULAR VOLUME [2]: 63.08 fL | MONOCYTE [2]: 1% | NEUTROPHIL [2]: 10.33% | NUCLEATED RED BLOOD CELLS [2]: 0.17 /100WBC | PLATELET COUNT [2]: 883.83 x10E3/uL | ALANINE AMINOTRANSFERASE [2]: 64.5 u/L | ALBUMIN [2]: 4.12 G/DL | ALKALINE PHOSPHATASE [2]: 425.67 u/L | ASPARTATE AMINOTRANSFERASE [2]: 88.5 u/L | BLOOD UREA NITROGEN [2]: 14.17 mg/dL | CARBON DIOXIDE [2]: 30.5 mmol/L | CHLORIDE [2]: 100.33 MEQ/L | CHOLESTEROL [2]: 55.33 mg/dL | CREATINE PHOSPHOKINASE [2]: 287.17 u/L | CREATININE [2]: 0.2 mg/dL | GLUCOSE [2]: 162.83 mg/dL | LACTATE DEHYDROGENASE [2]: 111.33 u/L | LIPASE [2]: 10.5 u/L | PHOSPHORUS [2]: 10.32 mg/dL | POTASSIUM [2]: 5.13 MEQ/L | SODIUM [2]: 143.93 MEQ/L | TOTAL BILIRUBIN [2]: 0.17 mg/dL | TOTAL PROTEIN [2]: 5.9 G/DL | URIC ACID [2]: 0.77 mg/dL | ABSOLUTE BASOPHIL [3]: 0 CELLS/uL | ABSOLUTE EOSINOPHIL [3]: 34 CELLS/uL | ABSOLUTE LYMPHOCYTE [3]: 11265.67 CELLS/uL | ABSOLUTE MONOCYTE [3]: 0 CELLS/uL | ABSOLUTE SEGMENTED NEUTROPHIL [3]: 933.67 CELLS/uL | BASOPHIL [3]: 0% | EOSINOPHIL [3]: 0.33% | ERYTHROCYTE COUNT [3]: 5.17 x10E6/uL | HEMATOCRIT [3]: 32.3% | HEMOGLOBIN [3]: 12.7 G/DL | LEUKOCYTE COUNT [3]: 12.23 x10E3/uL | LYMPHOCYTE [3]: 92.33% | MEAN CORPUSCULAR HEMOGLOBIN [3]: 24.6 pg | MEAN CORPUSCULAR HEMOGLOBIN CONCENTRATION [3]: 39.37 G/DL | MEAN CORPUSCULAR VOLUME [3]: 62.53 fL | MONOCYTE [3]: 0% | NEUTROPHIL [3]: 7.33% | NUCLEATED RED BLOOD CELLS [3]: 0 /100WBC | PLATELET COUNT [3]: 1096 x10E3/uL | ALANINE AMINOTRANSFERASE [3]: 63.33 u/L | ALBUMIN [3]: 4.13 G/DL | ALKALINE PHOSPHATASE [3]: 435.67 u/L | ASPARTATE AMINOTRANSFERASE [3]: 81.67 u/L | BLOOD UREA NITROGEN [3]: 12.33 mg/dL | CARBON DIOXIDE [3]: 33 mmol/L | CHLORIDE [3]: 98 MEQ/L | CHOLESTEROL [3]: 77.33 mg/dL | CREATINE PHOSPHOKINASE [3]: 224.33 u/L | CREATININE [3]: 0.13 mg/dL | GLUCOSE [3]: 132.33 mg/dL | LACTATE DEHYDROGENASE [3]: 137.33 u/L | LIPASE [3]: 9.67 u/L | PHOSPHORUS [3]: 11.77 mg/dL | POTASSIUM [3]: 6.44 MEQ/L | SODIUM [3]: 143.43 MEQ/L | TOTAL BILIRUBIN [3]: 0.2 mg/dL | TOTAL PROTEIN [3]: 5.9 G/DL | URIC ACID [3]: 0.77 mg/dL
